Measurements from patent US11680056B2, “MK2 inhibitors and uses thereof” (Xinthera, Inc., priority 2021, dated 2023).
Read-outs that look alike come from different tables or passages of the source.

Experiments:
p38a/MK2 = p38a/MK2 (Homo sapiens (Human), UniProt P49137+Q16539); assay: p38a/MK2 biochemical assay: activation of MK2 by p38, FITC-HSP27 peptide phosphorylation (IMAP FP); conditions: 10-point 1:3 dilution, 60 pM active p38a, 1 nM inactive MK2, 10 μM ATP, 2 h incubation
p38a/PRAK = p38a/PRAK (Homo sapiens (Human), UniProt Q16539); assay: p38a/PRAK biochemical assay: activation of PRAK by p38, FITC-HSP27 peptide phosphorylation (IMAP FP); conditions: 10-point 1:3 dilution, top dose 300 μM, 60 pM active p38a, 1 nM inactive PRAK, 10 μM ATP, 2 h incubation; for IC50: read-out: p38a/PRAK Enzyme pIC50 (converted)
How it was run: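 GST-tagged MK2 (F46–H400) and PRAK (M1–Q471), expressed in E. coli, activated by p38 and phosphorylate FITC-HSP27 peptide over 2 h with compound; readout by IMAP fluorescence polarisation (ex 485/em 528 nm). Ten-point 1:3 dilutions, top dose 1 μM for MK2 and 300 μM for PRAK. IC50 after vehicle normalisation; selectivity = IC50(PRAK)/IC50(MK2).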

[1] = top dose 1 μM, read-out: p38a/MK2 (1 μM) Enzyme pIC50 (converted)
[2] = top dose 10 μM, read-out: p38a/MK2 (10 μM) Enzyme pIC50 (converted)

Sequence of p38a/PRAK (Q16539 whole entry): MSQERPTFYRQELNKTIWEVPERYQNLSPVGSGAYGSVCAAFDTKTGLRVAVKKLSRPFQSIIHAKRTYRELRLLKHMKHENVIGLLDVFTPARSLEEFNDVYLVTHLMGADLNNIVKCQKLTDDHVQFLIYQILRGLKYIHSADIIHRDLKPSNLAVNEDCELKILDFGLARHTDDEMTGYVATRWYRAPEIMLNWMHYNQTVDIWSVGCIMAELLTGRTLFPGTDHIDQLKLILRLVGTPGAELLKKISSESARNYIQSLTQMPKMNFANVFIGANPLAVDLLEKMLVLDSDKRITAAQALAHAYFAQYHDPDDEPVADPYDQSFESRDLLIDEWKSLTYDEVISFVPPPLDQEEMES
Sequence of p38a/MK2 (P49137 46-400): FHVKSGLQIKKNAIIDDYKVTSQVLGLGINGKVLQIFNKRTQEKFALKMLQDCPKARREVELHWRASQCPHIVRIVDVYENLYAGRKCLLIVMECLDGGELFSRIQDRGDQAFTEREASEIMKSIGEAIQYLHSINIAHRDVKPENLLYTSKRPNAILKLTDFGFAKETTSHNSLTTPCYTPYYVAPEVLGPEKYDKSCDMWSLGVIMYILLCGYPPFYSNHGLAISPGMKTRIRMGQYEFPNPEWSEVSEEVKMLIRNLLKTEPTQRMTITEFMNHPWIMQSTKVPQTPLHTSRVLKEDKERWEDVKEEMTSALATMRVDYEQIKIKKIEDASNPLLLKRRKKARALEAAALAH
Sequence of p38a/MK2 (Q16539 whole entry): as the sequence (Q16539 whole entry) above

| SMILES | IC50 (p38a/MK2; [1]) | IC50 (p38a/PRAK) | further results |
| --- | --- | --- | --- |
| [2H]C([2H])(Oc1cc(C)n(-c2c(C)cnc(-c3ccnc(C(C)(C)O)n3)c2F)c(=O)c1Cl)c1ncc(F)cc1F (single isomer, unassigned) [Example 57B, rel-3-chloro-4-[(3,5-difluoropyridin-2-yl)(2H2)methoxy]-3′-fluoro-2′-[2-(2-hydroxypropan-2-yl)pyrimidin-4-yl]-5′,6-dimethyl-[1,4′-bipyridin]-2-one] | > 0.01 µM | 126 µM | – |
| Cc1cnc(-n2ccc(C(C)(C)O)n2)c(F)c1-n1c(C)cc(OCc2ncc(F)cc2F)c(Cl)c1=O (single isomer, unassigned) [Example 54A, rel-3-chloro-4-((3,5-difluoropyridin-2-yl)methoxy)-3′-fluoro-2′-(3-(2-hydroxypropan-2-yl)-1H-pyrazol-1-yl)-5′,6-dimethyl-2H-[1,4′-bipyridin]-2-one] | > 1 µM | > 316 µM | – |
| [2H]C([2H])(Oc1cc(C)n(-c2c(C)cnc(-c3ccnc(CC4(O)CC4)n3)c2F)c(=O)c1Cl)c1ncc(F)cc1F (single isomer, unassigned) [Example 61B, rel-3-chloro-4-((3,5-difluoropyridin-2-yl)methoxy-d2)-3′-fluoro-2′-(2-((1-hydroxycyclopropyl)methyl)pyrimidin-4-yl)-5′,6-dimethyl-2H-[1,4′-bipyridin]-2-one] | 0.00316 µM | 0.631 µM | – |
| [2H]C([2H])(Oc1cc(C)n(-c2c(C)cnc(-c3ccnc(CC4(O)CC4)n3)c2F)c(=O)c1Cl)c1ncc(F)cc1F (single isomer, unassigned) [Example 61A, rel-3-chloro-4-((3,5-difluoropyridin-2-yl)methoxy-d2)-3′-fluoro-2′-(2-((1-hydroxycyclopropyl)methyl)pyrimidin-4-yl)-5′,6-dimethyl-2H-[1,4′-bipyridin]-2-one] | > 0.1 µM | 158 µM | – |
| Cc1cnc(-c2cccc([C@H](O)CO)n2)cc1-n1c(C)cc(OCc2ncc(F)cc2F)c(Cl)c1=O (single isomer, unassigned) [Example 34C, rel-3-chloro-4-[(3,5-difluoropyridin-2-yl)methoxy]-2′-[6-(1,2-dihydroxyethyl)pyridin-2-yl]-5′,6-dimethyl-[1,4′-bipyridin]-2-one] | – | > 316 µM | IC50 (p38a/MK2; [2]): 2 µM |
| Cc1cnc(-n2ccc(C(C)(C)O)n2)c(C)c1-n1c(C)cc(OCc2ncc(F)cc2F)c(Cl)c1=O (single isomer, unassigned) [Example 50B, rel-3-chloro-4-[(3,5-difluoropyridin-2-yl)methoxy]-2′-[3-(2-hydroxypropan-2-yl)pyrazol-1-yl]-3′,5′,6-trimethyl-[1,4′-bipyridin]-2-one] | > 1 µM | > 316 µM | – |
| Cc1cnc(-c2ccnc(C(C)(C)C(F)F)n2)cc1-n1c(C)cc(OCc2ncc(F)cc2F)c(Cl)c1=O (atropisomer, axis not shown) [Example 5, 3-chloro-2′-[2-(1,1-difluoro-2-methylpropan-2-yl)pyrimidin-4-yl]-4-[(3,5-difluoropyridin-2-yl)methoxy]-5′,6-dimethyl-[1,4′-bipyridin]-2-one] | – | 3.16 µM | p38a/MK2 (10 μM) Enzyme pIC50 (p38a/MK2; top dose 10 μM): 7.8 |
| Cc1cnc(-n2ccc(C(C)(C)O)n2)cc1-n1c(C)cc(OCc2ncc(F)cc2Cl)c(Cl)c1=O (single isomer, unassigned) [Example 47B, rel-3-chloro-4-[(3-chloro-5-fluoropyridin-2-yl)methoxy]-2′-[3-(2-hydroxypropan-2-yl)pyrazol-1-yl]-5′,6-dimethyl-[1,4′-bipyridin]-2-one] | > 1 µM | > 316 µM | – |
| Cc1sc(-c2ccnc(C(C)(C)O)n2)cc1-n1c(C)cc(OCc2ncc(F)cc2F)c(Cl)c1=O (single isomer, unassigned) [Example 33A, 3-chloro-4-[(3,5-difluoropyridin-2-yl)methoxy]-1-{5-[2-(2-hydroxypropan-2-yl)pyrimidin-4-yl]-2-methylthiophen-3-yl}-6-methylpyridin-2-one] | 0.0251 µM | 5.01 µM | – |
| Cc1cnc(-n2ccc(C(C)(C)O)n2)cc1-n1c(C)cc(OCc2ncc(F)cc2F)c(Cl)c1=O (single isomer, unassigned) [Example 9A, rel-3-chloro-4-((3,5-difluoropyridin-2-yl)methoxy)-2′-(3-(2-hydroxypropan-2-yl)-1H-pyrazol-1-yl)-5′,6-dimethyl-2H-[1,4′-bipyridin]-2-one] | 0.00398 µM | 3.16 µM | – |
| Cc1cnc(-c2cccc([C@@](C)(O)CO)n2)cc1-n1c(C)cc(OCc2ncc(F)cc2F)c(Cl)c1=O (stereo in doubt) [Example 36A, rel-3-chloro-4-[(3,5-difluoropyridin-2-yl)methoxy]-2′-[6-(1,2-dihydroxypropan-2-yl)pyridin-2-yl]-5′,6-dimethyl-[1,4′-bipyridin]-2-one] | – | – | p38a/MK2 (1 μM) Enzyme pIC50 (p38a/MK2; top dose 1 μM): 8.3; p38a/PRAK Enzyme pIC50 (p38a/PRAK): 5.3 |
| Cc1cnc(-n2ccc(C(=O)NC3CC3)n2)cc1-n1c(C)cc(OCc2ncc(F)cc2F)c(Cl)c1=O [Example 44A, rel-1-{3-chloro-4-[(3,5-difluoropyridin-2-yl)methoxy]-5′,6-dimethyl-2-oxo-[1,4′-bipyridin]-2′-yl}-N-cyclopropylpyrazole-3-carboxamide] | 0.0251 µM | 6.31 µM | – |
| Cc1cnc(-c2cccc([C@H](O)CO)n2)cc1-n1c(C)cc(OCc2ncc(F)cc2F)c(Cl)c1=O (atropisomer, axis not shown) [Example 16, 3-chloro-4-[(3,5-difluoropyridin-2-yl)methoxy]-2′-[6-(1,2-dihydroxyethyl)pyridin-2-yl]-5′,6-dimethyl-[1,4′-bipyridin]-2-one] | – | 15.8 µM | p38a/MK2 (10 μM) Enzyme pIC50 (p38a/MK2; top dose 10 μM): 7.4 |
| Cc1cnc(-c2ccnc(C(C)(C)C(F)F)n2)cc1-n1c(C)cc(OCc2ncc(F)cc2F)c(Cl)c1=O (single isomer, unassigned) [Example 5A, rel-3-chloro-2′-[2-(1,1-difluoro-2-methylpropan-2-yl)pyrimidin-4-yl]-4-[(3,5-difluoropyridin-2-yl)methoxy]-5′,6-dimethyl-[1,4′-bipyridin]-2-one] | – | 2.51 µM | IC50 (p38a/MK2; [2]): 0.00631 µM |
| Cc1cnc(-c2ccnc(C(C)(C)O)n2)c(F)c1-n1c(C)cc(OCc2ncc(F)cc2F)c(Cl)c1=O (single isomer, unassigned) [Example 53B, rel-3-chloro-4-[(3,5-difluoropyridin-2-yl)methoxy]-3′-fluoro-2′-[2-(2-hydroxypropan-2-yl)pyrimidin-4-yl]-5′,6-dimethyl-[1,4′-bipyridin]-2-one] | 0.000126 µM | 0.794 µM | – |
| Cc1cnc(-c2ccnc(C(C)(C)O)n2)cc1-c1c(C)cc(OCc2ncc(F)cc2F)c(Cl)c1F [Example 1, 2-[4-(4-{3-chloro-4-[(3,5-difluoropyridin-2-yl)methoxy]-2-fluoro-6-methylphenyl}-5-methylpyridin-2-yl)pyrimidin-2-yl]propan-2-ol] | – | > 316 µM | p38a/MK2 (10 μM) Enzyme pIC50 (p38a/MK2; top dose 10 μM): 5.2 |
| Cc1cnc(-c2nc(C(C)(C)O)cs2)cc1-n1c(C)cc(OCc2ncc(F)cc2F)cc1=O (atropisomer, axis not shown) [Example 8, 4-[(3,5-difluoropyridin-2-yl)methoxy]-2′-[4-(2-hydroxypropan-2-yl)-1,3-thiazol-2-yl]-5′,6-dimethyl-[1,4′-bipyridin]-2-one] | – | > 316 µM | p38a/MK2 (10 μM) Enzyme pIC50 (p38a/MK2; top dose 10 μM): <5.0 |
| Cc1cnc(-c2ccc3c(n2)C(C)(O)CC3)cc1-n1c(C)cc(OCc2ncc(F)cc2F)c(Cl)c1=O (single isomer, unassigned) [Example 32B] | – | > 316 µM | IC50 (p38a/MK2; [2]): 1 µM |
